Experimental findings from patent publication US20250195521A1 (Revolution Medicines, Inc., priority 2020, published 2025) are described below.

Like-named read-outs stand apart in the source and are kept apart here.

The target of assay [1] is KRAS G12C (Homo sapiens (Human), UniProt P01116+P62937, G12C). The assay can be described thus: Ras-Raf disruption/FRET/MOA assay (BRAF RBD, Cyclophilin A). Format: biochemical. The settings on record: read-out: KRAS G12C FRET IC50. A digest of the protocol: (§1)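 Measured: compound-facilitated Cyclophilin A:Ras complex blocking RAF RBD binding. Conditions: 12.5 nM Ras-GMPPNP, 50 nM BRAF RBD, 25 μM CypA, 3 h plus 1.5 h detection. Output: IC50 from TR-FRET ratio.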
Sequence of KRAS G12C (P01116-2 other isoform, or with tags, fused parts or gaps G12C): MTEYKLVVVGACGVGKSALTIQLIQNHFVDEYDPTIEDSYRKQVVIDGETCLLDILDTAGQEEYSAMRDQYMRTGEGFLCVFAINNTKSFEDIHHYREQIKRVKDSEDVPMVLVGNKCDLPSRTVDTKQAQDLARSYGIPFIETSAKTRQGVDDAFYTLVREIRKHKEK
Sequence of KRAS G12C (P62937 whole entry): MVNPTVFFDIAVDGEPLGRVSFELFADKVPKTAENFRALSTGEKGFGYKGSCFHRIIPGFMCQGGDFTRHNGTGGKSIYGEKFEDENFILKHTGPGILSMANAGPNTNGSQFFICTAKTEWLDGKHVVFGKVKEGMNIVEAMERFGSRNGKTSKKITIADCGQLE

Assay [2] deals with KRAS G12D (Homo sapiens (Human), UniProt P01116+P62937, G12D). The description is as above. Format: biochemical. The settings on record: read-out: KRAS G12D FRET IC50. A digest of the protocol:
as §1

The target of assay [3] is KRAS G12S (Homo sapiens (Human), UniProt P01116+P62937, G12S). The description is as above. The settings on record: read-out: KRAS G12S FRET IC50. Format: biochemical. A digest of the protocol: as §1
Sequence of KRAS G12S (P01116 other isoform, or with tags, fused parts or gaps G12S): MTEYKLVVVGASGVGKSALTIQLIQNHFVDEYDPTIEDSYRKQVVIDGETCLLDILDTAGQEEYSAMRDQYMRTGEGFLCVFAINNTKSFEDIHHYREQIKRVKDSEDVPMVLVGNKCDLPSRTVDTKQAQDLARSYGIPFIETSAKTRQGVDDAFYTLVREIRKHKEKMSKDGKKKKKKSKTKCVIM
Sequence of KRAS G12S (P62937 whole entry): as the sequence (P62937 whole entry) above
The target in assay [4] is KRAS G12V (Homo sapiens (Human), UniProt P01116+P62937, G12V). The description is as above. In kind it is biochemical. Particulars: read-out: KRAS G12V FRET IC50. A digest of the protocol: as §1
Sequence of KRAS G12V (P01116 other isoform, or with tags, fused parts or gaps G12V): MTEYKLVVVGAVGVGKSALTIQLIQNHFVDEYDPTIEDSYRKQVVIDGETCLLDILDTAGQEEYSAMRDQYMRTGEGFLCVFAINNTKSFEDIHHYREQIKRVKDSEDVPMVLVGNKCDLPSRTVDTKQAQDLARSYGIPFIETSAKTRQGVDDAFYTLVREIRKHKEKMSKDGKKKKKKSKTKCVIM
Sequence of KRAS G12V (P62937 whole entry): as the sequence (P62937 whole entry) above
The target in assay [5] is KRAS G13C (Homo sapiens (Human), UniProt P01116+P62937, G13C). The assay is described as above. Format: biochemical. Particulars: read-out: KRAS G13C FRET IC50. Summed up: as §1
Sequence of KRAS G13C (P01116 other isoform, or with tags, fused parts or gaps G13C): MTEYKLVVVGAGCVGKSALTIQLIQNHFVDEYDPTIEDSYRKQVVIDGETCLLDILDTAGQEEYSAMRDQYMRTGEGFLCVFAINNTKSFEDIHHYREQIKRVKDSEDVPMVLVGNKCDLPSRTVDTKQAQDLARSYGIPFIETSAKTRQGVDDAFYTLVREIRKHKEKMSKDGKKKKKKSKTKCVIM
Sequence of KRAS G13C (P62937 whole entry): as the sequence (P62937 whole entry) above
The target of assay [6] is KRAS G13D (Homo sapiens (Human), UniProt P01116+P62937, G13D). The assay is described as above. Format: biochemical. The settings on record: read-out: KRAS G13D FRET data IC50. Summed up:
as §1

The target of assay [7] is KRAS WT (Homo sapiens (Human), UniProt P01116+P62937). Described as above. Particulars: read-out: KRAS WT FRET data IC50. In kind it is biochemical. A digest of the protocol: as §1
Sequence of KRAS WT (P01116 other isoform, or with tags, fused parts or gaps): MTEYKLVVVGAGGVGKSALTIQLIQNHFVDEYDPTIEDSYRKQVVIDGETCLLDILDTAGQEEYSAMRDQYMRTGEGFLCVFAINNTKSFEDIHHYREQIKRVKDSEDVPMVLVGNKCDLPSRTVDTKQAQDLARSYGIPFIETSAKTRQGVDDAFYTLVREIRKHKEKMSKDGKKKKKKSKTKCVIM
Sequence of KRAS WT (P62937 whole entry): as the sequence (P62937 whole entry) above
The target of assay [8] is NRAS G12C (Homo sapiens (Human), UniProt P01111+P62937, G12C). The assay is described as above. Format: biochemical. The settings on record: read-out: NRAS G12C FRET data IC50. A digest of the protocol:
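Ras-GMPPNP (12.5 nM), BRAF RBD (50 nM) and 25 μM Cyclophilin A were incubated with compound for 3 h at 25° C, then detected 1.5 h with anti-His Eu and anti-GST APC; IC50 values follow from the reduced TR-FRET ratio.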

Assay [9] relates to NCI-H358 (K-Ras G12C). Description: CellTiter-Glo cell viability assay, NCI-H358. Format: cell-based, human. The settings on record: 5-day treatment, read-out: H358 Cell Viability assay data (K-Ras G12C, IC50). A digest of the protocol:
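Viability read-out was luminescent (CellTiter-Glo) on day 5 of compound exposure in K-Ras G12C NCI-H358 cells. Values were expressed as percent of mean DMSO signal and fitted with a four-parameter logistic curve.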

Assay [10] has as its target KRAS Q61H (Homo sapiens (Human), UniProt P01116+P62937, Q61H). Description: Ras-Raf disruption/FRET/MOA assay (BRAF RBD, Cyclophilin A). Format: biochemical. A digest of the protocol:
as §1

Sequence of KRAS G12D (P01116 other isoform, or with tags, fused parts or gaps G12D): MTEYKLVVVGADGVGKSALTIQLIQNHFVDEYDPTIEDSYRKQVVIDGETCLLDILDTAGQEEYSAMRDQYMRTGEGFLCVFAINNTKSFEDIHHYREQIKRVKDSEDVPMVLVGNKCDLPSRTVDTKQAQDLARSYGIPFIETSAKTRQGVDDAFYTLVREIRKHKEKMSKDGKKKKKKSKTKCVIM
Sequence of KRAS G12D (P62937 whole entry): as the sequence (P62937 whole entry) above
Sequence of NRAS G12C (P01111 whole entry G12C): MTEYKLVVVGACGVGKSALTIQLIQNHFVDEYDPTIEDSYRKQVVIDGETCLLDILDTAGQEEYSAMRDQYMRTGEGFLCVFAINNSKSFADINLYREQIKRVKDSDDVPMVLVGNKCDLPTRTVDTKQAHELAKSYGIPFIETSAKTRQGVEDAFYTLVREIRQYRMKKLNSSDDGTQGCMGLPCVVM
Sequence of NRAS G12C (P62937 whole entry): as the sequence (P62937 whole entry) above
Sequence of KRAS G13D (P01116 other isoform, or with tags, fused parts or gaps G13D): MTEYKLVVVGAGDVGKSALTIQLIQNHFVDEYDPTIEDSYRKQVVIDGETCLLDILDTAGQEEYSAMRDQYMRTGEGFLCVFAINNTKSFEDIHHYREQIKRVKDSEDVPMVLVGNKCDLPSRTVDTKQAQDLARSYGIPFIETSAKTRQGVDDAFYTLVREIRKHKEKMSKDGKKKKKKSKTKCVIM
Sequence of KRAS G13D (P62937 whole entry): as the sequence (P62937 whole entry) above
Sequence of KRAS Q61H (P01116 other isoform, or with tags, fused parts or gaps Q61H): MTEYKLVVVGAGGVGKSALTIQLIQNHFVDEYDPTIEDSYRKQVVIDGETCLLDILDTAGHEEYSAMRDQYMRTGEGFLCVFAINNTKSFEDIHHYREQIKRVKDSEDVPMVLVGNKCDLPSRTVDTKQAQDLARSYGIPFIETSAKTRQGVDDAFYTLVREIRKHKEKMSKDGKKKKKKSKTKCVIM
Sequence of KRAS Q61H (P62937 whole entry): as the sequence (P62937 whole entry) above

For `CCn1c(-c2cccnc2[C@H](C)OC)c2c3cc(ccc31)-c1csc(n1)C[C@H](NC(=O)[C@H](C(C)C)N(C)C(=O)N1C[C@@H](C)N(C)C[C@@H]1C)C(=O)N1CCC[C@H](N1)C(=O)OCC(C)(C)C2` [Compound A292], the IC50 lay within 100 to 1000 nM in assay [1]; 1000 to 10000 nM in assay [2]; 1000 to 10000 nM in assay [3]; 1000 to 10000 nM in assay [4]; 1000 to 10000 nM in assay [5]; 1000 to 10000 nM in assay [6]. Also, the half-maximal inhibitory concentration (IC50) was 100 to 1000 nM in [7]; 100 to 1000 nM in [8]; less than 10 nM in assay [9] (Homo sapiens, NCI-H358, 120 h).

As for `CCn1c(-c2cccnc2[C@H](C)OC)c2c3cc(ccc31)-c1csc(n1)C[C@H](NC(=O)[C@H](C(C)C)N1CCCN(C)C1=O)C(=O)N1CCC[C@H](N1)C(=O)OCC(C)(C)C2` [Compound A317], the IC50 in assay [1] is 1000 to 10000 nM; in [2] it was more than 10000 nM; in assay [3], 1000 to 10000 nM; in [4], 1000 to 10000 nM; in assay [5], 1000 to 10000 nM; in [6] it was 1000 to 10000 nM. The IC50 in assay [7] is 1000 to 10000 nM; in assay [8], 1000 to 10000 nM; in assay [9] (Homo sapiens, NCI-H358, 120 h) it was less than 10 nM.

In the case of `CCN(CC)C(=O)N(C)[C@H](C(=O)N[C@H]1Cc2nc(cs2)-c2ccc3c(c2)c(c(-c2cccnc2[C@H](C)OC)n3CC)CC(C)(C)COC(=O)[C@@H]2CCCN(N2)C1=O)C(C)C` [Compound A351], the IC50 was in the range of 10 to 100 nM in assay [1]; 100 to 1000 nM in assay [2]; 10 to 100 nM in assay [3]; 100 to 1000 nM in assay [4]; 10 to 100 nM in assay [5]; 100 to 1000 nM in assay [6]. Moreover, the IC50 in assay [7] was 10 to 100 nM; in assay [8] it was 10 to 100 nM; in assay [9] (Homo sapiens, NCI-H358, 120 h) it was less than 10 nM.

As for `CCn1c(-c2cccnc2[C@H](C)OC)c2c3cc(ccc31)-c1cc(O)cc(c1)C[C@H](NC(=O)[C@H](C(C)C)N(C)C(=O)[C@@H]1CCCC[C@@H]1N)C(=O)N1CCC[C@H](N1)C(=O)OCC(C)(C)C2` [Compound A395], the IC50 lay within 10 to 100 nM in assay [1]; 10 to 100 nM in assay [2]; 10 to 100 nM in assay [3]; 100 to 1000 nM in [4]; 10 to 100 nM in assay [5]; 10 to 100 nM in assay [6]. Also, the IC50 in [7] was 10 to 100 nM; in assay [8] it was 10 to 100 nM; in assay [9] (Homo sapiens, NCI-H358, 120 h), less than 10 nM.

As to `CCn1c(-c2cccnc2[C@H](C)OC)c2c3cc(ccc31)-c1csc(n1)C[C@H](NC(=O)[C@H](C(C)C)N(C)C(=O)N1CCOC[C@@H]1C)C(=O)N1CCC[C@H](N1)C(=O)OCC(C)(C)C2` [Compound A403], the IC50 in assay [1] is 100 to 1000 nM; in [2], 1000 to 10000 nM; in assay [3], 100 to 1000 nM; in [4] it was 100 to 1000 nM; in assay [5], 100 to 1000 nM; in assay [6], 100 to 1000 nM. Moreover, the IC50 was 100 to 1000 nM in assay [7]; 100 to 1000 nM in assay [8]; less than 10 nM in [9] (Homo sapiens, NCI-H358, 120 h).

Regarding `CCn1c(-c2cccnc2[C@H](C)OC)c2c3cc(ccc31)-c1cc(O)cc(c1)C[C@H](NC(=O)[C@H](C(C)C)N(C)C(=O)C1CN3CCCN1CC3)C(=O)N1CCC[C@H](N1)C(=O)OCC(C)(C)C2` (some centres unmarked) [Compound A404], the IC50 in assay [1] lay within 100 to 1000 nM; in [2] it was 100 to 1000 nM; in assay [3], 100 to 1000 nM; in [4], 1000 to 10000 nM; in assay [5] it was 100 to 1000 nM; in [6], 100 to 1000 nM. Further, the IC50 in assay [7] fell in the range of 100 to 1000 nM; in [8] it was 100 to 1000 nM; in assay [9] (Homo sapiens, NCI-H358, 120 h) it was 10 to 100 nM.

For the molecule `CCn1c(-c2cccnc2[C@H](C)OC)c2c3cc(ccc31)-c1cc(O)cc(c1)C[C@H](NC(=O)[C@H](C(C)C)N(C)C(=O)[C@@H]1[C@H]3CC[C@H](C3)[C@@H]1N)C(=O)N1CCC[C@H](N1)C(=O)OCC(C)(C)C2` [Compound A417], the 50% inhibitory concentration (IC50) in assay [1] lay in the range of 100 to 1000 nM; in [2], 100 to 1000 nM; in assay [3], 100 to 1000 nM; in assay [4], 1000 to 10000 nM; in assay [5] it was 100 to 1000 nM; in [6], 100 to 1000 nM. The IC50 in [7] lay within 100 to 1000 nM; in [8] it was 100 to 1000 nM; in assay [9] (Homo sapiens, NCI-H358, 120 h) it was 10 to 100 nM.

Turning to `CCn1c(-c2cccnc2[C@H](C)OC)c2c3cc(ccc31)-c1cc(O)cc(c1)C[C@H](NC(=O)[C@H](C(C)C)N(C)C(=O)[C@H]1OCC[C@H]1c1ccccc1)C(=O)N1CCC[C@H](N1)C(=O)OCC(C)(C)C2` [Compound A425], the IC50 in assay [1] lay within 100 to 1000 nM; in assay [2], 1000 to 10000 nM; in assay [3], 1000 to 10000 nM; in [4], 100 to 1000 nM; in assay [5] it was 100 to 1000 nM; in [6] it was 1000 to 10000 nM. For the same molecule, the IC50 in assay [7] was 1000 to 10000 nM; in assay [8], 1000 to 10000 nM; in assay [9] (Homo sapiens, NCI-H358, 120 h), less than 10 nM.

As to `CCO[C@@H]1c2nc(cs2)-c2ccc3c(c2)c(c(-c2cc(C4CCN(C5COC5)CC4)cnc2[C@H](C)OC)n3CC)CC(C)(C)COC(=O)[C@@H]2CCCN(N2)C(=O)[C@H]1NC(=O)[C@H]1[C@H](C)[C@@H]1C` [Compound A449, (1r,2R,3S)—N-((6^3S,3S,4S,Z)-3-ethoxy-1^1-ethyl-1^2-(2-((S)-1-methoxyethyl)-5-(1-(oxetan-3-yl)piperidin-4-yl)pyridin-3-yl)-10,10-dimethyl-5,7-dioxo-6^1,6^2,6^3,6^4,6^5,6^6-hexahydro-1^1H-8-oxa-2 (4,2)-thiazola-1 (5,3)-indola-6 (1,3)-pyridazinacycloundecaphane-4-yl)-2,3-dimethylcyclopropane-1-carboxamide], the IC50 was in the range of 100 to 1000 nM in [1]; 1000 to 10000 nM in [2]; 1000 to 10000 nM in assay [3]; 1000 to 10000 nM in assay [4]; 100 to 1000 nM in [5]; 100 to 1000 nM in assay [10]. Also, in assay [9], the IC50 was 10 to 100 nM.

Turning to `CCn1c(-c2cccnc2[C@H](C)OC)c2c3cc(ccc31)-c1csc(n1)[C@@H](OCC1CCN(C)CC1)[C@H](NC(=O)[C@H]1C[C@@H]1C)C(=O)N1CCC[C@H](N1)C(=O)OCC(C)(C)C2` [Compound A451, (1S,2S)—N-((6^3S,3S,4S,Z)-1^1-ethyl-1^2-(2-((S)-1-methoxyethyl)pyridin-3-yl)-10,10-dimethyl-3-((1-methylpiperidin-4-yl)methoxy)-5,7-dioxo-6^1,6^2,6^3,6^4,6^5,6^6-hexahydro-1^1H-8-oxa-2 (4,2)-thiazola-1 (5,3)-indola-6 (1,3)-pyridazinacycloundecaphane-4-yl)-2-methylcyclopropane-1-carboxamide], the IC50 in assay [1] is 100 to 1000 nM; in assay [2], 1000 to 10000 nM; in [3], 100 to 1000 nM; in [4] it was 100 to 1000 nM; in [5], 100 to 1000 nM; in [10], 100 to 1000 nM. The IC50 in [9] was 10 to 100 nM.

The term IC50 denotes the concentration that inhibits the measured activity by half.
